# Values of other authors in patent US20120237590A1 (priority 2011, published 2012).
# What was measured:
# [1] = June 2005 to 2008; 27,996 exenatide and 16,276 sidagliptin users
# Amyloid β = conditions: mice, 20 mg/kg gavage, 12 weeks
smiles,measurement,setting,value
N[C@@H](CC(=O)N1CCn2c(nnc2C(F)(F)F)C1)Cc1cc(F)c(F)cc1F [Sitagliptin],users who suffered acute pancreatitis,[1],0.12%
same,decrease of amyloid β levels and amyloid plaques,Amyloid β,about 50%
same,levels of incretin GLP-1 in the brain,Amyloid β,increased
